For 19 compounds, Ki and EC50 results are on record in patent publication US10781204B2, “TYK2 inhibitors and uses thereof” (Nimbus Lakshmi, Inc., priority 2015, dated 2020).

A word on the Ki: it is the dissociation constant of the complex between target and ligand, obtained from inhibition or displacement. As usually defined, the EC50 is the midpoint of the concentration-response curve. Low readings indicate a more potent agent, high ones a less potent agent.

Assay [1] has as its target JAK2 (Homo sapiens (Human), UniProt O60674). The assay is described as follows: JAK2 radioactive kinase assay. It is filed as biochemical. Particulars: ATP 10 μM. An outline of the steps: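 Radiometric assay in Hepes pH 7.5, MgCl2, EGTA, Brij35, BSA, DTT, 1% DMSO, with 10 μM [33P]ATP, 120 min at room temp; P81 paper capture and counting. […]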
For assay [2], the target named is TYK2 (Homo sapiens (Human), UniProt P29597). The assay is described as follows: Tyk2 radioactive kinase assay. It is filed as biochemical. As to conditions: ATP 10 μM. An outline of the steps: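 Recombinant human TYK2 (Invitrogen) was mixed with 20 μM peptide substrate in a buffer of 20 mM Hepes pH 7.5, 10 mM MgCl2, 1 mM EGTA, 0.02% Brij35, 0.02 mg/mL BSA, 0.1 mM […], 2 mM DTT and 1% DMSO, and compounds in DMSO were added. Adding ^33P-ATP (10 μM ATP) started the reaction, which ran 120 min at room temperature. Mixtures were then spotted onto P81 ion-exchange paper, washed thoroughly in 0.75% phosphoric acid, and counted for radioactivity.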
Sequence of TYK2 (P29597 whole entry): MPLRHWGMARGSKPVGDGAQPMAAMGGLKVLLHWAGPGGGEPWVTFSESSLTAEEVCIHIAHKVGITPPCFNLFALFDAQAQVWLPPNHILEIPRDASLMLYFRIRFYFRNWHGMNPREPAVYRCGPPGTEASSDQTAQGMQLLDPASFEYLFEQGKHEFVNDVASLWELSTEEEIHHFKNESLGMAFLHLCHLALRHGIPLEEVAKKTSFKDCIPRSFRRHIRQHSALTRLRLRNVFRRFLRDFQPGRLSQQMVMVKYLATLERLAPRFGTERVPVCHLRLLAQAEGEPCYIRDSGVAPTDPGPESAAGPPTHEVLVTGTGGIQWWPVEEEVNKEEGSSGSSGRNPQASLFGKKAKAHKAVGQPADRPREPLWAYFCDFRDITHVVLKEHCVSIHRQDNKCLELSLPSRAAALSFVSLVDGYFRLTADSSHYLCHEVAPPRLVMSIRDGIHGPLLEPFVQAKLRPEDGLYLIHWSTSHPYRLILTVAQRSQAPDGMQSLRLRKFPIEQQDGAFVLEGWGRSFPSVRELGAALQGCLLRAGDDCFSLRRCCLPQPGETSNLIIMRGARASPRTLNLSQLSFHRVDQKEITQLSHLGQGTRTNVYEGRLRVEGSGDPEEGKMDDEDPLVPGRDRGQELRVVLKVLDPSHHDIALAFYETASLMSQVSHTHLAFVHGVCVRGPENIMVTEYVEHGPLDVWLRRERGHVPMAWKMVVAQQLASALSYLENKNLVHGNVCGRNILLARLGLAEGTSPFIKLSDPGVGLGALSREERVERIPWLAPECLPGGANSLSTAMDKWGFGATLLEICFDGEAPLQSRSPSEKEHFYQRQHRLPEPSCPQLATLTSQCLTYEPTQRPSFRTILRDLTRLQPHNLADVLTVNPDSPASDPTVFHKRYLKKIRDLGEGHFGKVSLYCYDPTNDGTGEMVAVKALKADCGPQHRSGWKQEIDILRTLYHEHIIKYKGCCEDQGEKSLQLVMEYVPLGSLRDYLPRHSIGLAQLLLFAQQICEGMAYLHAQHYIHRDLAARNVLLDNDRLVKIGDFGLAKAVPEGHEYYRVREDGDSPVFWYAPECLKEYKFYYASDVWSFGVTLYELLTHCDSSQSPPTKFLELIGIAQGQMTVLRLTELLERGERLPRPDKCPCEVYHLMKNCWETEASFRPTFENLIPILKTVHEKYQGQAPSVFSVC

In assay [3] the test system is JAK2-pSTAT5 (GM-CSF induced pSTAT5). The experiment in a line: GM-CSF induced pSTAT5 in human PBMC. It is filed as cell-based. As to conditions: 5 ng/mL GM-CSF. An outline of the steps:
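Thawed human PBMC, 200,000 per well in serum-containing medium, were preincubated 1 hr at 37 C with compound in 0.1% DMSO. GM-CSF at 5 ng/mL final was added for 20 minutes, then pSTAT5 and total STAT5 in lysates were measured by MSD immunoassay.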

Assay [4] relates to Tyk2-pSTAT4 (IL-12 induced pSTAT4). The experiment in a line: IL-12 induced pSTAT4 in human PBMC. Particulars: 1.7 ng/mL IL-12, 30 minutes. It is filed as cell-based. An outline of the steps:
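Thawed human PBMC (200,000 cells/well, serum-containing medium) preincubated with compound 1 hr at 37 C, 0.1% DMSO final. Stimulated with 1.7 ng/mL IL-12 (final) for 30 minutes; pSTAT4 and total STAT4 in lysates measured by MSD immunoassay.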

Bounds are passed on as bounds.

Sequence of JAK2 (O60674 whole entry): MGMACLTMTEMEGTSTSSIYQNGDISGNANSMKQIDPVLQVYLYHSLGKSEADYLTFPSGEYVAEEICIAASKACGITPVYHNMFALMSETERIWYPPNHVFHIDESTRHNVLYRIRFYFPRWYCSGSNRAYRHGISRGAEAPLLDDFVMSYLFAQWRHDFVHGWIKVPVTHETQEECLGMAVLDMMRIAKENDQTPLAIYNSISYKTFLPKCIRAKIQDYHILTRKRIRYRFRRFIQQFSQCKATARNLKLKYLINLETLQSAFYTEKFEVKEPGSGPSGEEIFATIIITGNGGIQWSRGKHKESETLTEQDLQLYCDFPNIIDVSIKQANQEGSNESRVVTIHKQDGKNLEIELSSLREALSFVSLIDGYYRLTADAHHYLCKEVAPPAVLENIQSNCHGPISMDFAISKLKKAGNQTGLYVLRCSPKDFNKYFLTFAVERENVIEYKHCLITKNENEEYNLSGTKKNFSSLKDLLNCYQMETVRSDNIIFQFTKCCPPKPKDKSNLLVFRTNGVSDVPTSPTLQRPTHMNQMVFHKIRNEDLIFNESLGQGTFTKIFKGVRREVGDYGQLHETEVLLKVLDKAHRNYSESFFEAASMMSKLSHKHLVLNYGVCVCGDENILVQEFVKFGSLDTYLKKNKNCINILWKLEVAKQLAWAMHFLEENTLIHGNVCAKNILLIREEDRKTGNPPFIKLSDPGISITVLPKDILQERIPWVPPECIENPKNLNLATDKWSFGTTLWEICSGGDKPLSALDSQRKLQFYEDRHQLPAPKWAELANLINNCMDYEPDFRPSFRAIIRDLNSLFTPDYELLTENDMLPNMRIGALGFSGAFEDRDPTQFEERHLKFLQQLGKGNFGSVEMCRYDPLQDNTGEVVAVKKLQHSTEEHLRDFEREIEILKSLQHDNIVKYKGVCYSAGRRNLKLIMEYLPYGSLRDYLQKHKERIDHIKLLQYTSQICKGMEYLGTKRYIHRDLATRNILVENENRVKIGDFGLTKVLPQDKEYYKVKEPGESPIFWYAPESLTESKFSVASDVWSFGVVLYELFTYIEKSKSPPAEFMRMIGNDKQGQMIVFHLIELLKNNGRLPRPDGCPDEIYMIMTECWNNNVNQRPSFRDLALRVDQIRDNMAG

In the case of `CO[C@@H]1CCN(c2ccn(-c3cc(-c4c(F)cccc4C#N)nc4c3C(=O)NC4)n2)C[C@H]1O` [I-211, 3-fluoro-2-(4-(3-((3R,4R)-3-hydroxy-4-methoxypiperidin-1-yl)-1H-pyrazol-1-yl)-5-oxo-6,7-dihydro-5H-pyrrolo[3,4-b]pyridin-2-yl)benzonitrile], the Ki lay within 10 to 100 nM in assay [1] and 0.1 to 10 nM in assay [2]. In addition, the EC50 is above 2000 nM in assay [3] (20 minutes) and 100 to 2000 nM in assay [4].

On to `[2H]C1([2H])CC(O)(C([2H])([2H])[2H])C([2H])([2H])N1c1ccn(-c2cc(-c3c(F)cccc3C#N)nc3c2C(=O)NC3)n1` (stereo not shown) [I-170, 3-fluoro-2-(4-(3-(3-hydroxy-3-(methyl-d3)pyrrolidin-1-yl-2,2,5,5-d4)-1H-pyrazol-1-yl)-5-oxo-6,7-dihydro-5H-pyrrolo[3,4-b]pyridin-2-yl)benzonitrile], for which the Ki in assay [1] and in assay [2] was 0.1 to 10 nM throughout. Further, the EC50 was above 2000 nM in assay [3] (Homo sapiens, PBMC, 20 min) and 30 to 100 nM in assay [4] (Homo sapiens, PBMC, 0.5 h).

As to `N#Cc1cccc(F)c1-c1cc(-n2ccc(N3CCC(O)CC3)n2)c2c(n1)CNC2=O` [I-56, 3-fluoro-2-(4-(3-(4-hydroxypiperidin-1-yl)-1H-pyrazol-1-yl)-5-oxo-6,7-dihydro-5H-pyrrolo[3,4-b]pyridin-2-yl)benzonitrile], the values for the Ki in assay [1] and in assay [2] were 10 to 100 nM and 0.1 to 10 nM, respectively. In addition, the EC50 was 100 to 2000 nM in assay [3] (Homo sapiens, PBMC, 20 min) and 100 to 2000 nM in assay [4] (Homo sapiens, PBMC, 0.5 h).

Take `CC1O[C@H]2CN(c3ccn(-c4cc(-c5c(F)cccc5C#N)nc5c4C(=O)NC5)n3)C[C@H]2O1` (stereo partly drawn) [I-161, 3-fluoro-2-(4-(3-((3aR,6aS)-2-methyltetrahydro-5H-[1,3]dioxolo-[4,5-c]pyrrol-5-yl)-1H-pyrazol-1-yl)-5-oxo-6,7-dihydro-5H-pyrrolo[3,4-b]pyridin-2-yl)benzonitrile]: the Ki in assay [1] lay in the range of 10 to 100 nM; in assay [2], 0.1 to 10 nM. Moreover, the EC50 in assay [3] (Homo sapiens, PBMC, 20 min) fell in the range of 100 to 2000 nM; in assay [4] (Homo sapiens, PBMC, 0.5 h), 100 to 2000 nM.

In the case of `N#Cc1cccc(F)c1-c1cc(-n2ccc(N3CCC[C@@H](N4CCOCC4)C3)n2)c2c(n1)CNC2=O` [I-158, (R)-3-fluoro-2-(4-(3-(3-morpholinopiperidin-1-yl)-1H-pyrazol-1-yl)-5-oxo-6,7-dihydro-5H-pyrrolo[3,4-b]pyridin-2-yl)benzonitrile], the Ki in assay [1] was in the range of 10 to 100 nM; in assay [2] it was 0.1 to 10 nM. In addition, the EC50 was above 2000 nM in assay [3] (Homo sapiens, PBMC, 20 min) and 100 to 2000 nM in assay [4] (Homo sapiens, PBMC, 0.5 h).

As to `[2H]C1([2H])NC(=O)c2c(-n3ccc(N4CC[C@@H](O)C4)n3)cc(-c3c(F)cccc3C#N)nc21` [I-114, (R)-3-fluoro-2-(4-(3-(3-hydroxypyrrolidin-1-yl)-1H-pyrazol-1-yl)-5-oxo-6,7-dihydro-5H-pyrrolo[3,4-b]pyridin-2-yl-7,7-d2)benzonitrile], the Ki in assay [1] and in assay [2] was 0.1 to 10 nM in each case. Moreover, the EC50 in assay [3] (Homo sapiens, PBMC, 20 min) lay in the range of 100 to 2000 nM; in assay [4] (Homo sapiens, PBMC, 0.5 h), 30 to 100 nM.

For `CS(=O)(=O)N[C@H]1CCN(c2ccn(-c3cc(-c4c(F)cccc4C#N)nc4c3C(=O)NC4)n2)C1` [I-135, (S)-N-(1-(1-(2-(2-cyano-6-fluorophenyl)-5-oxo-6,7-dihydro-5H-pyrrolo[3,4-b]pyridin-4-yl)-1H-pyrazol-3-yl)pyrrolidin-3-yl)methanesulfonamide], the Ki in assay [1] and in assay [2] was 0.1 to 10 nM in each case. The EC50 in assay [3] (Homo sapiens, PBMC, 20 min) was above 2000 nM; in assay [4] (Homo sapiens, PBMC, 0.5 h), 100 to 2000 nM.

With `CCNC(=O)[C@@H]1CCCN(c2ccn(-c3cc(-c4c(F)cccc4C#N)nc4c3C(=O)NC4)n2)C1` [I-172, (R)-1-(1-(2-(2-cyano-6-fluorophenyl)-5-oxo-6,7-dihydro-5H-pyrrolo[3,4-b]pyridin-4-yl)-1H-pyrazol-3-yl)-N-ethylpiperidine-3-carboxamide], the Ki in assay [1] lay within 10 to 100 nM; in assay [2], 0.1 to 10 nM. In addition, the EC50 was above 2000 nM in assay [3] (Homo sapiens, PBMC, 20 min) and 100 to 2000 nM in assay [4] (Homo sapiens, PBMC, 0.5 h).

As for `N#Cc1cccc(F)c1-c1cc(-n2ccc(N3CCCC(N4CCOCC4)C3)n2)c2c(n1)CNC2=O` (stereo not shown) [I-149, 3-fluoro-2-(4-(3-(3-morpholinopiperidin-1-yl)-1H-pyrazol-1-yl)-5-oxo-6,7-dihydro-5H-pyrrolo[3,4-b]pyridin-2-yl)benzonitrile], the Ki in assay [1] is 0.1 to 10 nM; in assay [2], 0.009 to 0.1 nM. In addition, the EC50 in assay [3] (Homo sapiens, PBMC, 20 min) lay within 100 to 2000 nM; in assay [4] (Homo sapiens, PBMC, 0.5 h) it was 100 to 2000 nM.

In the case of `CO[C@H]1CN(c2ccn(-c3cc(-c4c(F)cccc4C#N)nc4c3C(=O)NC4)n2)C[C@@]1(C)OC` [I-230, 2-(4-(3-((3R,4S)-3,4-dimethoxy-3-methylpyrrolidin-1-yl)-1H-pyrazol-1-yl)-5-oxo-6,7-dihydro-5H-pyrrolo[3,4-b]pyridin-2-yl)-3-fluorobenzonitrile], the inhibitory constant (Ki) in assay [1] and in assay [2] was 0.1 to 10 nM each time. For the same compound, the EC50 lay within 100 to 2000 nM in assay [3] (Homo sapiens, PBMC, 20 min) and 100 to 2000 nM in assay [4] (Homo sapiens, PBMC, 0.5 h).

Take `CC1=C(c2ccn(-c3cc(-c4c(F)cccc4C#N)nc4c3C(=O)NC4)n2)CNC1=O` [I-227, 3-fluoro-2-(4-(3-(4-methyl-5-oxo-2,5-dihydro-1H-pyrrol-3-yl)-1H-pyrazol-1-yl)-5-oxo-6,7-dihydro-5H-pyrrolo[3,4-b]pyridin-2-yl)benzonitrile]: the inhibitory constant (Ki) fell in the range of 10 to 100 nM in assay [1] and 0.1 to 10 nM in assay [2]. The EC50 fell in the range of 100 to 2000 nM in assay [3] (Homo sapiens, PBMC, 20 min) and 100 to 2000 nM in assay [4] (Homo sapiens, PBMC, 0.5 h).

`N#Cc1cccc(F)c1-c1cc(-n2ccc(N3CCOCC3)n2)c2c(n1)CNC2=O` [I-4, 3-fluoro-2-(4-(3-morpholino-1H-pyrazol-1-yl)-5-oxo-6,7-dihydro-5H-pyrrolo[3,4-b]pyridin-2-yl)benzonitrile]: the results for the Ki in assay [1] and in assay [2] were 10 to 100 nM and 0.1 to 10 nM, respectively. Besides, the EC50 in assay [3] (Homo sapiens, PBMC, 20 min) was above 2000 nM; in assay [4] (Homo sapiens, PBMC, 0.5 h), 100 to 2000 nM.

For the compound `N#Cc1cccc(F)c1-c1cc(-n2ccc(N3CCC[C@@H](C(N)=O)C3)n2)c2c(n1)CNC2=O` [I-125, (R)-1-(1-(2-(2-cyano-6-fluorophenyl)-5-oxo-6,7-dihydro-5H-pyrrolo[3,4-b]pyridin-4-yl)-1H-pyrazol-3-yl)piperidine-3-carboxamide], the Ki in assay [1] was in the range of 10 to 100 nM; in assay [2], 0.1 to 10 nM. In addition, the EC50 in assay [3] (Homo sapiens, PBMC, 20 min) is 100 to 2000 nM; in assay [4] (Homo sapiens, PBMC, 0.5 h), 100 to 2000 nM.

As to `N#Cc1cccc(F)c1-c1cc(-n2ccc(N3CC[C@H](O)[C@H](O)C3)n2)c2c(n1)CNC2=O` [I-136, 2-(4-(3-((3R,4S)-3,4-dihydroxypiperidin-1-yl)-1H-pyrazol-1-yl)-5-oxo-6,7-dihydro-5H-pyrrolo[3,4-b]pyridin-2-yl)-3-fluorobenzonitrile], the inhibition constant (Ki) in assay [1] was 0.1 to 10 nM; in assay [2], 0.009 to 0.1 nM. Also, the EC50 is above 2000 nM in assay [3] (Homo sapiens, PBMC, 20 min) and 30 to 100 nM in assay [4] (Homo sapiens, PBMC, 0.5 h).

Take `CO[C@@H]1CN(c2ccn(-c3cc(-c4c(F)cccc4C#N)nc4c3C(=O)NC4)n2)CC[C@H]1O` [I-201, 3-fluoro-2-(4-(3-((3R,4R)-4-hydroxy-3-methoxypiperidin-1-yl)-1H-pyrazol-1-yl)-5-oxo-6,7-dihydro-5H-pyrrolo[3,4-b]pyridin-2-yl)benzonitrile]: the Ki lay within 10 to 100 nM in assay [1] and 0.1 to 10 nM in assay [2]. Also, the EC50 in assay [3] (20 minutes) lay within 100 to 2000 nM; in assay [4], 30 to 100 nM.

Turning to `N#Cc1cccc(F)c1-c1cc(-n2ccc(N3CCC[C@H](O)[C@H](O)C3)n2)c2c(n1)CNC2=O` [I-178, 2-(4-(3-((3R,4S)-3,4-dihydroxyazepan-1-yl)-1H-pyrazol-1-yl)-5-oxo-6,7-dihydro-5H-pyrrolo[3,4-b]pyridin-2-yl)-3-fluorobenzonitrile], the Ki in assay [1] lay within 10 to 100 nM; in assay [2] it was 0.1 to 10 nM. Moreover, the EC50 in assay [3] (Homo sapiens, PBMC, 20 min) was above 2000 nM; in assay [4] (Homo sapiens, PBMC, 0.5 h) it was 100 to 2000 nM.

With `N#Cc1cccc(F)c1-c1cc(-n2ccc(N3CCC[C@](N)(C(F)(F)F)C3)n2)c2c(n1)CNC2=O` [I-119, (R)-2-(4-(3-(3-amino-3-(trifluoromethyl)piperidin-1-yl)-1H-pyrazol-1-yl)-5-oxo-6,7-dihydro-5H-pyrrolo[3,4-b]pyridin-2-yl)-3-fluorobenzonitrile], the Ki in assay [1] was in the range of 0.1 to 10 nM; in assay [2], 0.009 to 0.1 nM. The EC50 in assay [3] (Homo sapiens, PBMC, 20 min) is 100 to 2000 nM; in assay [4] (Homo sapiens, PBMC, 0.5 h), 30 to 100 nM.

Turning to `[2H]C([2H])([2H])O[C@@H]1CN(c2ccn(-c3cc(-c4c(F)cccc4C#N)nc4c3C(=O)NC4)n2)C[C@@H]1O` [I-223, 3-fluoro-2-(4-(3-((3S,4R)-3-hydroxy-4-(methoxy-d3)pyrrolidin-1-yl)-1H-pyrazol-1-yl)-5-oxo-6,7-dihydro-5H-pyrrolo[3,4-b]pyridin-2-yl)benzonitrile], the Ki is 10 to 100 nM in assay [1] and 0.1 to 10 nM in assay [2]. For the same compound, the EC50 in assay [3] (Homo sapiens, PBMC, 20 min) lay within 100 to 2000 nM; in assay [4] (Homo sapiens, PBMC, 0.5 h), 100 to 2000 nM.

As for `C[C@H]1CC[C@@H](O)CN1c1ccn(-c2cc(-c3c(F)cccc3C#N)nc3c2C(=O)NC3)n1` [I-113, 3-fluoro-2-(4-(3-((2S,5R)-5-hydroxy-2-methylpiperidin-1-yl)-1H-pyrazol-1-yl)-5-oxo-6,7-dihydro-5H-pyrrolo[3,4-b]pyridin-2-yl)benzonitrile], the Ki was in the range of 10 to 100 nM in assay [1] and 0.1 to 10 nM in assay [2]. Further, the EC50 lay in the range of 100 to 2000 nM in assay [3] (Homo sapiens, PBMC, 20 min) and 100 to 2000 nM in assay [4] (Homo sapiens, PBMC, 0.5 h).
